From the NIST ThermoML archive (doi:10.1016/j.jct.2014.02.021)
Where “and” joins values, the source holds several entries; their conditions need not be identical. Identical values can stand only once.

Tests used:
[1] = xn = mol fraction of the nth substance listed; conditions: 298.15 K, 101 kPa, Liquid, Vibrating tube method
[2] = 298.15 K; 101 kPa; Liquid; Vibrating tube method

CC#N [acetonitrile] + CO
[1]
Conditions	mass density
x1 = 0.0992	787.14 kg/m3
x1 = 0.1002	787.104 kg/m3
x1 = 0.1075	787.149 kg/m3
x1 = 0.197	786.692 kg/m3
x1 = 0.1984	786.63 kg/m3
x1 = 0.2008	786.647 kg/m3
x1 = 0.4002	784.701 kg/m3
x1 = 0.4004	784.66 kg/m3
x1 = 0.4013	784.644 kg/m3
x1 = 0.465	784.22 kg/m3
x1 = 0.4653	784.25 kg/m3
x1 = 0.5041	783.427 kg/m3
x1 = 0.5042	783.347 kg/m3
x1 = 0.5047	783.356 kg/m3
x1 = 0.601	782.103 kg/m3 and 782.009 kg/m3
x1 = 0.6056	781.935 kg/m3
x1 = 0.7992	779.248 kg/m3
x1 = 0.8012	779.292 kg/m3
x1 = 0.8067	779.242 kg/m3
x1 = 0.9007	777.825 kg/m3
x1 = 0.9044	777.935 kg/m3
x1 = 0.9049	777.896 kg/m3
x1 = 0.9358	777.391 kg/m3
x1 = 0.9376	777.347 kg/m3
x1 = 0.9382	777.385 kg/m3
x1 = 1	776.615 kg/m3

CN(C)C=O [dimethylformamide] + CO
[1]
Conditions	mass density
x1 = 0.0496	803.451 kg/m3
x1 = 0.0502	803.39 kg/m3
x1 = 0.0511	803.056 kg/m3
x1 = 0.0991	818.484 kg/m3
x1 = 0.1021	818.46 kg/m3
x1 = 0.1084	818.189 kg/m3
x1 = 0.1981	843.566 kg/m3
x1 = 0.1988	843.761 kg/m3
x1 = 0.2004	843 kg/m3
x1 = 0.4022	882.138 kg/m3 and 881.976 kg/m3
x1 = 0.4054	881.38 kg/m3
x1 = 0.4986	896.174 kg/m3
x1 = 0.5002	894.978 kg/m3
x1 = 0.5013	896.278 kg/m3
x1 = 0.5982	909.277 kg/m3
x1 = 0.6008	908.588 kg/m3
x1 = 0.6031	909.254 kg/m3
x1 = 0.7998	928.355 kg/m3
x1 = 0.8028	928.308 kg/m3
x1 = 0.8054	928.317 kg/m3
x1 = 0.8997	936.786 kg/m3
x1 = 0.9033	936.655 kg/m3
x1 = 0.9039	936.718 kg/m3
x1 = 1	943.974 kg/m3

CC1COC(=O)O1 (configuration not stated) [4-methyl-1,3-dioxolan-2-one]
Conditions	mass density [kg/m3]
[2]	1199.49

CO [methanol] + CN(C)C=O
Conditions	mass density [kg/m3]
[1], x2 = 0	786.58

CN(C)C=O [dimethylformamide]
Conditions	mass density [kg/m3]
[2]	943.974

CC1COC(=O)O1 (configuration not stated) [4-methyl-1,3-dioxolan-2-one] + CO
[1]
Conditions	mass density [kg/m3]
x1 = 0.0484	828.25
x1 = 0.0497	828.25
x1 = 0.051	829.62
x1 = 0.0987	871.34
x1 = 0.0991	870.05
x1 = 0.0999	869.111
x1 = 0.1972	932.83
x1 = 0.1991	936.46
x1 = 0.2001	939.29
x1 = 0.3942	1035.57
x1 = 0.3998	1021.45
x1 = 0.4001	1037.34
x1 = 0.4998	1069.62
x1 = 0.5022	1072.85
x1 = 0.505	1072.84
x1 = 0.598	1103.43
x1 = 0.6017	1106.39
x1 = 0.6049	1103.9
x1 = 0.7939	1159.25
x1 = 0.7979	1159.25
x1 = 0.8009	1158.72
x1 = 0.9	1179.23
x1 = 0.9011	1179.68
x1 = 0.9031	1179.23
x1 = 1	1199.49

CC#N [acetonitrile]
Conditions	mass density [kg/m3]
[2]	776.615

CO [methanol] + CC#N
Conditions	mass density [kg/m3]
[1], x2 = 0	786.58

CO [methanol]
Conditions	mass density [kg/m3]
[2]	786.58

CO [methanol] + CC1COC(=O)O1
Conditions	mass density [kg/m3]
[1], x2 = 0	786.58
